Source: patent US7608617B2, “Naphthaline derivatives as H3 inverse agonists” (Hoffmann-La Roche Inc., priority 2004, dated 2009)
Structures can show the parent of a compound that is named as a salt.

biological target: T1, histamine 3 receptor (H3R) (Homo sapiens, UniProt Q9Y5N1); test: Binding assay with 3H-(R)α-methylhistamine (competition binding, membranes of the human HR3-CHO cell line); conditions: competition with 3H(R)α-Methylhistamine 1 nM, Ki calculated from IC50 by Cheng-Prusoff equation
T1 construct: expressed in transfected cells; host or cells: CHO cells (HR3-CHO cell line), membranes
Procedure: Binding assay with ^3H—(R)α-methylhistamine
Saturation binding experiments were performed using HR3—CHO membranes prepared as described in Takahashi, K, Tokita, S., Kotani, H. (2003) J. Pharmacol. Exp. Therapeutics 307, 213-218.
An appropriate amount of membrane (60 to 80 μg protein/well) was incubated with increasing concentrations of ^3H(R)α-Methylhistamine di-hydrochloride (0.10 to 10 nM). Non specific binding was determined using a 200 fold excess of cold (R)α-Methylhistamine dihydrobromide (500 nM final concentration). The incubation was carried out at room temperature (in deep-well plates shaking for three hours). The final volume in each well was 250 μl. The incubation was followed by rapid filtration on GF/B filters (pre-soaked with 100 μl of 0.5% PEI in Tris 50 mM shaking at 200 rpm for two hours). The filtration was made using a cell-harvester and the filter plates were then washed five times with ice cold washing buffer containing 0.5 M NaCl. After harvesting, the plates were dried at 55° C. for 60 min, then we added scintillation fluid (Microscint 40, 40 microl in each well) and the amount of radioactivity on the filter was determined in Packard top-counter after shaking the plates for two hours at 200 rpm at room temperature.
Binding Buffer: 50 mM Tris-HCl pH 7.4 and 5 mM MgCl2x 6H2O pH 7.4. Washing Buffer: 50 mM Tris-HCl pH 7.4 and 5 mM MgCl2×6H2O and 0.5 M NaCl pH 7.4:
Indirect measurement of affinity of H3R inverse agonists: twelve increasing concentrations (ranging from […] to 0.3 nM) of the selected compounds were always tested in competition binding experiments using membrane of the human HR3-CHO cell line. An appropriate amount of protein, e.g. approximately 500 cpm binding of RAMH at Kd, were incubated for 1 hour at room temperature in 250 μl final volume in 96-well plates in presence of ^3H(R)α-Methylhistamine (1 nM final concentration=Kd). […]
All compounds were tested at a single concentration in duplicates. […] Ki's were calculated from IC50 based on Cheng-Prusoff equation (Cheng, Y, Prusoff, W H (1973) Biochem Pharmacol 22, 3099-3108).

T1 sequence (Q9Y5N1 whole entry): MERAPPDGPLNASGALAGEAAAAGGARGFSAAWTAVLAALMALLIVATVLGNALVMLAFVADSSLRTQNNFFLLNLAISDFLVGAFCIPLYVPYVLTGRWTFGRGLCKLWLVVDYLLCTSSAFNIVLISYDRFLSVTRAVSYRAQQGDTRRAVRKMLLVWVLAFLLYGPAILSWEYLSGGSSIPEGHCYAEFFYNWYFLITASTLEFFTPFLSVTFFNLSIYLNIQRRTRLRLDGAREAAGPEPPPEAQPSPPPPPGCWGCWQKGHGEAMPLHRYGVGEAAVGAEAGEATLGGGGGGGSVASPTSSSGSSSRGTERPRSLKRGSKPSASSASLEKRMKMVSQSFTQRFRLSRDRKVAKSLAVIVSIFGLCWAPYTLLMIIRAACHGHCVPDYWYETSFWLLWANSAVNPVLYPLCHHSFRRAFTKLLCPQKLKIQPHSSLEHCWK

| Ki [nM] | Structure (SMILES) |
| --- | --- |
| 26 | O=C(c1ccc2cc(OCCCN3CCCCC3)ccc2c1)N1CCCCC1 [Example 1, piperidin-1-yl-[6-(3-piperidin-1-yl-propoxy)-naphthalen-2-yl]-methanone 1:1 hydrochloride] |
| 111 | CC1CCCCN1CCCOc1ccc2cc(C(=O)N(C)Cc3ccccc3)ccc2c1 (stereo not drawn) [Example 13, 6-[3-(2-methyl-piperidin-1-yl)-propoxy]-naphthalene-2-carboxylic acid benzyl-methyl-amide 1:1 hydrochloride] |
| 571 | CC1CCN(C(=O)c2ccc3cc(OCCC4CCCN4C)ccc3c2)CC1 (stereo not drawn) [Example 31, (4-methyl-piperidin-1-yl)-{6-[2-(1-methyl-pyrrolidin-2-yl)-ethoxy]-naphthalen-2-yl}-methanone 1:1 hydrochloride] |
